Experimental data published in patent US6831079B1, “Vasopressin agonist formulation and process” (American Cyanamid Company, priority 1999, dated 2004).

Key:
[1] = molecular target: Vasopressin V2 (Rattus norvegicus, UniProt Q00788); test: Vasopressin V2 agonist effects in normal conscious homozygous Brattleboro rats with central diabetes insipidus; format: in vivo; set-up: from tissue; host or cells: whole living homozygous Brattleboro rat; the receptor is the animal's own; details: Brattleboro (BB) rats, 10 mg/kg oral
Source text: Vasopressin V2 Agonist Effects of Test Compounds in Normal Conscious Homozygous Brattleboro Rats with Central Diabetes Insipidus
Male or female homozygous Brattleboro rats (Harlan Sprague Dawley, Inc., Indianapolis, Ind.) of 250-350 g body weight were supplied with standard rodent diet (Purina Rodent Lab. Chow 5001) and water ad libitum. On the day of test, rats were placed individually into metabolic cages equipped with devices to separate the feces from the urine and containers for collection of urine. Test compound or reference agent was given at an oral dose of 1 to 10 mg/kg in a volume of 10 ml/kg. The vehicle used was 20% dimethylsulfoxide (DMSO) in 2.5% preboiled corn starch. During the test, rats were provided with water ad libitum. Urine was collected for six hours after dosing of the test compound. At the end of six hours, urine volume was measured. Urinary osmolality was determined using a Fiske One-Ten Osmometer (Fiske Associates, Norwood, Mass., 02062) or an Advanced CRYOMATIC Osmometer, Model 3C2 (Advanced Instruments, Norwood, Mass.). Determinations of Na^+, K^+ and Cl^− ion were carried out using ion specific electrodes in a Beckman SYNCHRON EL-ISE Electrolyte System analyzer. This animal model was mainly used for evaluation of potency and duration of action of the active compounds.

Chain of Vasopressin V2 (Q00788 whole entry): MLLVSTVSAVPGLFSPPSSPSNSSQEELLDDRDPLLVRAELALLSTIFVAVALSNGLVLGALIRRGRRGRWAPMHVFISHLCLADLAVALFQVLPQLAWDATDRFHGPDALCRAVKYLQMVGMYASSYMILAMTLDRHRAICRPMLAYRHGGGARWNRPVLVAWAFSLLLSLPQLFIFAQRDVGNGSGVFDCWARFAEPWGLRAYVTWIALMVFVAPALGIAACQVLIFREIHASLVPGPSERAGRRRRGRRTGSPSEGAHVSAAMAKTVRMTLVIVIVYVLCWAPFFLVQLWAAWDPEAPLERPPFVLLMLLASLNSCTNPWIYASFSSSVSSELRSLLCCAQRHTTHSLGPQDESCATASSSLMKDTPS

- Osmolality (% Increase) ([1]; change in osmolality as percent of control): 221%
- Urine Volume (% decrease) ([1]; vs. control, urine collected six hours): 74%
- melting point: 155 to 158 °C
Compound: Cn1ncnc1-c1ccc(C(=O)N2Cc3cccn3Cc3ccccc32)cc1 [Example 49, [4-(2-Methyl-2H-[1,2,4]triazol-3-yl)-phenyl]-(5H,11H-pyrrolo[2,1-c][1,4]-benzodiazepin-10-yl)-methanone]
